Where two headings read alike, the source gives them in different places. *1 amine or outer side, *2 acyl side, *3 side chain or, on linkers, in order; H or OH if unused. Where a SMILES comes first, the peptide text is derived from it. Bridges are numbered along the chain shown (N, C = ends). [ ]: non-standard residue; d: D form. The star is where a group is joined. hPhe(3-Cl-4-CF3) = N[C@@H](CCc1ccc(C(F)(F)F)c(Cl)c1)C(=O)O; NPrPhe(4-CF3) = CCCN[C@@H](Cc1ccc(C(F)(F)F)cc1)C(=O)O; X46 = CCCCN([C@@H](Cc1ccc(C)cc1)C(=O)[*:2])[*:1]; Morpholine(3S-CO) = O=C(O)[C@@H]1COCCN1; NMeGly(cPent) = CN[C@H](C(=O)O)C1CCCC1; Hyp = O=C(O)[C@@H]1C[C@@H](O)CN1; NMeD = CN[C@@H](CC(=O)O)C(=O)O; NMeL = CN[C@@H](CC(C)C)C(=O)O; NMeAbu = CC[C@H](NC)C(=O)O; Pip = O=C(O)[C@@H]1CCCCN1; Morpholide = C1CN(*)CCO1; NMeA = CN[C@@H](C)C(=O)O; Ac5c = NC1(C(=O)O)CCCC1; Aze = O=C(O)[C@@H]1CCN1; Ac4c = NC1(C(=O)O)CCC1; NEtG = CCNCC(=O)O; Sar = CNCC(=O)O
Columns and labels:
[1] = biological target: GDP-bound KRAS wild-type protein (Homo sapiens, UniProt P01116); test: Binding to KRAS by surface plasmon resonance (SPR), Single Cycle Kinetics; details: GDP-bound KRAS wild-type protein, read-out: KRAS KD
[2] = biological target: GDP-bound HRAS wild-type protein (Homo sapiens, UniProt P01112); test: Binding to HRAS by surface plasmon resonance (SPR), Single Cycle Kinetics; details: for HRAS/KRAS (ratio of KD value for HRAS to KD value for KRAS) / HRAS/KRAS (ratio of KD value with respect to HRAS to KD value with respect to KRAS): SPR, GDP-bound HRAS wild-type protein vs GDP-bound KRAS wild-type protein
[3] = biological target: GDP-bound NRAS wild-type protein (Homo sapiens, UniProt P01111); test: Binding to NRAS by surface plasmon resonance (SPR), Single Cycle Kinetics; details: for NRAS/KRAS (ratio of KD value for NRAS to KD value for KRAS) / NRAS/KRAS (ratio of KD value with respect to NRAS to KD value with respect to KRAS): SPR, GDP-bound NRAS wild-type protein vs GDP-bound KRAS wild-type protein
[4] = SPR Single Cycle Kinetics, 1:1 binding model

GDP-bound NRAS wild-type protein, sequence (P01111 whole entry): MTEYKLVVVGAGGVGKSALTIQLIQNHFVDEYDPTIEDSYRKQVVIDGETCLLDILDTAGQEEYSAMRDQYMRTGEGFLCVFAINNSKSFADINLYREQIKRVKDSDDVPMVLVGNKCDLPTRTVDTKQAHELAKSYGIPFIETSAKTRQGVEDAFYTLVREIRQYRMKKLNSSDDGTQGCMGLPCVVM
GDP-bound HRAS wild-type protein, sequence (P01112 whole entry): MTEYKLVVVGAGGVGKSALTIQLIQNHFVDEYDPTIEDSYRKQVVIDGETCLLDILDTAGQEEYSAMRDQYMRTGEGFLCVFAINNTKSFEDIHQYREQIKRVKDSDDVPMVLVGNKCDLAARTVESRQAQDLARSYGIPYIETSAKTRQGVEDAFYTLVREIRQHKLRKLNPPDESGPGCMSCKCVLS
GDP-bound KRAS wild-type protein, sequence (P01116 whole entry): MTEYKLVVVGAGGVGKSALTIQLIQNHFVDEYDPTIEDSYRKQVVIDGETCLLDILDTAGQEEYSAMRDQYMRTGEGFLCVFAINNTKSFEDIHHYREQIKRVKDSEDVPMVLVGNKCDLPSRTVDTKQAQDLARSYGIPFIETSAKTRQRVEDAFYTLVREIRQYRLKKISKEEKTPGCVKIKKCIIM

Row | SMILES | Kd [1, 4] [nM] | HRAS/KRAS (ratio of KD value for HRAS to KD value for KRAS) [2] | NRAS/KRAS (ratio of KD value for NRAS to KD value for KRAS) [3] | also measured
1 | CCCN1C(=O)CN(C)C(=O)CN(C)C(=O)[C@H]([C@@H](C)CC)NC(=O)[C@H](CC)N(C)C(=O)C[C@@H](C(=O)N2CCOCC2)N(C)C(=O)[C@H](C2CCCC2)N(C)C(=O)C2(CCCC2)NC(=O)[C@@H]2CCCN2C(=O)[C@H](CCc2ccc(C(F)(F)F)c(Cl)c2)NC(=O)CN(C)C(=O)[C@@H]1Cc1ccc(C(F)(F)F)cc1 [PP0190] ([NMeAbu]I[Sar][Sar][NPrPhe(4-CF3)][Sar][hPhe(3-Cl-4-CF3)]P[Ac5c][NMeGly(cPent)][NMeD]-Morpholide; lactam N-11) | 0.13 | B (a compound having 3 or more and less than 10 is denoted as B) | B (a compound having 3 or more and less than 10 is denoted as B) | –
2 | CCCN1C(=O)[C@@H]2CCN2C(=O)[C@H](C)N(C)C(=O)[C@H]([C@@H](C)CC)NC(=O)[C@H](CC(C)C)N(C)C(=O)C[C@@H](C(=O)N(C)C)NC(=O)[C@H](C2CCCC2)N(C)C(=O)C2(CCC2)NC(=O)[C@@H]2C[C@@H](OCC)CN2C(=O)[C@H](CCc2ccc(C(F)(F)F)c(Cl)c2)NC(=O)CN(C)C(=O)[C@@H]1Cc1ccc(C(F)(F)F)cc1 [PP0384] ([NMeL]I[NMeA][Aze][NPrPhe(4-CF3)][Sar][hPhe(3-Cl-4-CF3)][Hyp](Et)[Ac4c][NMeGly(cPent)]D-NMe2; lactam N-11) | 0.18 | B (a compound having 3 or more and less than 10 is denoted as B) | C (A compound having a KD ratio of 0.1 or more and less than 3 is denoted as C) | –
3 | CC[C@H](C)[C@@H]1NC(=O)[C@H](CC(C)C)N(C)C(=O)C[C@@H](C(=O)N(C)C)N(C)C(=O)[C@H](C2CCCC2)N(C)C(=O)C2(CCCC2)NC(=O)[C@@H]2CC(F)(F)CN2C(=O)[C@H](CCc2cc(F)c(C(F)(F)F)c(F)c2)NC(=O)CN(C)C(=O)[C@H](Cc2ccc(C(F)(F)F)cc2)N2CCCCC[C@@H](C2=O)N(C)C(=O)CN(C)C1=O [PP0465] | 0.51 | – | – | HRAS/KRAS (ratio of KD value with respect to HRAS to KD value with respect to KRAS) [2]: B (a compound having 3 or more and less than 10 is denoted as B); NRAS/KRAS (ratio of KD value with respect to NRAS to KD value with respect to KRAS) [3]: B (a compound having 3 or more and less than 10 is denoted as B)
4 | CCCCN1C(=O)CN(C)C(=O)CN(C)C(=O)[C@H]([C@@H](C)CC)NC(=O)[C@H](CC(C)C)N(C)C(=O)C[C@@H](C(=O)N2CCOCC2)N(C)C(=O)[C@H](C2CCCC2)N(C)C(=O)C2(CCCC2)NC(=O)[C@@H]2CCCN2C(=O)[C@H](CCc2ccc(C(F)(F)F)c(Cl)c2)NC(=O)CN(C)C(=O)[C@@H]1Cc1ccc(C)cc1 [PP0062] ([NMeL]I[Sar][Sar][X46][Sar][hPhe(3-Cl-4-CF3)]P[Ac5c][NMeGly(cPent)][NMeD]-Morpholide; lactam N-11) | 0.21 | C (A compound having a KD ratio of 0.1 or more and less than 3 is denoted as C) | C (A compound having a KD ratio of 0.1 or more and less than 3 is denoted as C) | –
5 | CCCN1C(=O)CN(C)C(=O)CN(CC)C(=O)[C@H]([C@@H](C)CC)NC(=O)[C@H](CC(C)C)N(C)C(=O)C[C@@H](C(=O)N2CCOCC2)N(C)C(=O)[C@H](C2CCCC2)N(C)C(=O)C2(CCC2)NC(=O)[C@@H]2C[C@@H](OCC)CN2C(=O)[C@H](CCc2ccc(C(F)(F)F)c(Cl)c2)NC(=O)CN(C)C(=O)[C@@H]1Cc1ccc(C(F)(F)F)cc1 [PP0401] ([NMeL]I[NEtG][Sar][NPrPhe(4-CF3)][Sar][hPhe(3-Cl-4-CF3)][Hyp](Et)[Ac4c][NMeGly(cPent)][NMeD]-Morpholide; lactam N-11) | 0.15 | B (a compound having 3 or more and less than 10 is denoted as B) | B (a compound having 3 or more and less than 10 is denoted as B) | –
6 | CC[C@H](C)[C@@H]1NC(=O)[C@H](CC(C)C)N(C)C(=O)C[C@@H](C(=O)N(C)C)N(C)C(=O)[C@H](C2CCCC2)N(C)C(=O)C2(CCC2)NC(=O)[C@@H]2CCCN2C(=O)[C@H](CCc2cc(F)c(C(F)(F)F)c(F)c2)NC(=O)CN(C)C(=O)[C@H](Cc2ccc(C(F)(F)F)cc2)N2CCCC[C@@H](C2=O)N(C)C(=O)CN(C)C1=O [PP0574] | 0.026 | – | – | HRAS/KRAS (ratio of KD value with respect to HRAS to KD value with respect to KRAS) [2]: B (a compound having 3 or more and less than 10 is denoted as B); NRAS/KRAS (ratio of KD value with respect to NRAS to KD value with respect to KRAS) [3]: C (A compound having a KD ratio of 0.1 or more and less than 3 is denoted as C)
7 | CCC[C@H]1C(=O)N[C@@H]([C@@H](C)CC)C(=O)N(C2CC2)CC(=O)N(C)[C@H]2C/C=C\CCN(C2=O)[C@@H](Cc2ccc(C(F)(F)F)cc2)C(=O)N(C)CC(=O)N[C@@H](CCc2ccc(Cl)c(Cl)c2)C(=O)N2C[C@H](OCC)C[C@H]2C(=O)NC2(CC(C)(C)C2)C(=O)N(C)[C@@H](CC2CC2)C(=O)N(C)[C@H](C(=O)N(C)C)CC(=O)N1C [PP2817] | 2.4 | – | – | HRAS/KRAS (ratio of KD value with respect to GDP-bound HRAS wild-type protein to KD value with respect to KRAS) ([2]; SPR KD ratio HRAS/KRAS, class symbols): A (a compound having 10 or more and less than 20 is denoted as A); NRAS/KRAS (ratio of KD value with respect to GDP-bound NRAS wild-type protein to KD value with respect to KRAS) ([3]; SPR KD ratio NRAS/KRAS, class symbols): A (a compound having 10 or more and less than 20 is denoted as A)
8 | CCO[C@@H]1C[C@H]2C(=O)NC3(CCC3)C(=O)N(C)[C@@H](C3CCCC3)C(=O)N(C)[C@H](C(=O)N(C)C)CC(=O)N(C)[C@@H](CC)C(=O)N[C@@H]([C@@H](C)CC)C(=O)N(C)CC(=O)N(C)[C@H]3C[C@@H](C)CCN(C3=O)[C@@H](Cc3ccc(C(F)(F)F)cc3)C(=O)N(C)CC(=O)N[C@@H](CCc3cc(F)c(C(F)(F)F)c(F)c3)C(=O)N2C1 [PP1020] | – | B (a compound having 3 or more and less than 10 is denoted as B) | C (A compound having a KD ratio of 0.1 or more and less than 3 is denoted as C) | Kd ([1]; SPR, Single Cycle Kinetics): 0.022 nM
9 | CCCOC[C@H]1C(=O)N[C@@H]([C@@H](C)CC)C(=O)N2CCC[C@H]2C(=O)N(C)[C@H]2C/C=C\CCN(C2=O)[C@@H](Cc2ccc(C(F)(F)F)cc2)C(=O)N(C)CC(=O)N[C@@H](CCc2ccc(C(F)(F)F)c(OC)c2)C(=O)N2C[C@H](OCC)C[C@H]2C(=O)N(C)C2(CCC2)C(=O)N(C)[C@@H](C2CCCC2)C(=O)N(C)[C@H](C(=O)N(C)C)CC(=O)N1C [PP2322] | – | B (a compound having 3 or more and less than 10 is denoted as B) | A (a compound having 10 or more and less than 20 is denoted as A) | Kd ([1]; SPR, Single Cycle Kinetics): 0.18 nM
10 | CCO[C@@H]1C[C@H]2C(=O)NC3(CCC3)C(=O)N(C)[C@@H](C3CCCC3)C(=O)N(C)[C@H](C(=O)N(CC)CC)CC(=O)N(C)[C@@H](C)C(=O)N[C@@H]([C@@H](C)CC)C(=O)N(C)CC(=O)N(C)[C@H]3C/C=C\CCN(C3=O)[C@@H](Cc3ccc(C(F)(F)F)cc3)C(=O)N(C)CC(=O)N[C@@H](CCc3cc(F)c(C(F)(F)F)c(F)c3)C(=O)N2C1 [PP1308, (2S,8S,12R,14S,20S,23S,27S,30S,36S,38Z)-20-cyclopentyl-8-[2-[3,5-difluoro-4-(trifluoromethyl)phenyl]ethyl]-12-ethoxy-N,N-diethyl-4,19,22,26,27,32,35-heptamethyl-30-[(1S)-1-methylpropyl]-3,6,9,15,18,21,25,28,31,34,42-undecaoxo-2-[[4-(trifluoromethyl)phenyl]methyl]spiro[1,4,7,10,16,19,22,26,29,32,35-undecazatricyclo[34.5.1.0^10,14]dotetracont-38-ene-17,1′-cyclobutane]-23-carboxamide] | – | – | – | Kd ([1]; SPR, Single Cycle Kinetics, 1:1 binding model): 0.1 nM; HRAS/KRAS (ratio of KD value for HRAS to KD value for KRAS) ([2]; KD ratio class): A (a compound having 10 or more and less than 20 is denoted as A); NRAS/KRAS (ratio of KD value for NRAS to KD value for KRAS) ([3]; KD ratio class): A (a compound having 10 or more and less than 20 is denoted as A)
11 | CCCN1C(=O)CN(C)C(=O)CN(C)C(=O)[C@H]([C@@H](C)CC)NC(=O)[C@H](CC(C)C)N(C)C(=O)C[C@@H](C(=O)N2CCOCC2)N(C)C(=O)[C@H](C2CCCC2)N(C)C(=O)C2(CCCC2)NC(=O)[C@@H]2CCCCN2C(=O)[C@H](CCc2ccc(C(F)(F)F)c(Cl)c2)NC(=O)CN(C)C(=O)[C@@H]1Cc1ccc(C(F)(F)F)cc1 [PP0263] ([NMeL]I[Sar][Sar][NPrPhe(4-CF3)][Sar][hPhe(3-Cl-4-CF3)][Pip][Ac5c][NMeGly(cPent)][NMeD]-Morpholide; lactam N-11) | 0.47 | C (A compound having a KD ratio of 0.1 or more and less than 3 is denoted as C) | B (a compound having 3 or more and less than 10 is denoted as B) | –
12 | CCCN1C(=O)CN(C)C(=O)CN(CC)C(=O)[C@H]([C@@H](C)CC)NC(=O)[C@H](CC(C)C)N(C)C(=O)C[C@@H](C(=O)N2CCOCC2)N(C)C(=O)[C@H](C2CCCC2)N(C)C(=O)C2(CCCC2)NC(=O)[C@@H]2COCCN2C(=O)[C@H](CCc2ccc(C(F)(F)F)c(Cl)c2)NC(=O)CN(C)C(=O)[C@@H]1Cc1ccc(C(F)(F)F)cc1 [PP0299] ([NMeL]I[NEtG][Sar][NPrPhe(4-CF3)][Sar][hPhe(3-Cl-4-CF3)][Morpholine(3S-CO)][Ac5c][NMeGly(cPent)][NMeD]-Morpholide; lactam N-11) | 1.4 | B (a compound having 3 or more and less than 10 is denoted as B) | B (a compound having 3 or more and less than 10 is denoted as B) | –

Source: patent US20240158446A1, “CYCLIC COMPOUND HAVING SELECTIVE INHIBITORY ACTION ON KRAS OVER HRAS AND NRAS” (CHUGAI SEIYAKU KABUSHIKI KAISHA, priority 2021, published 2024)
